Assay results from patent publication US4734428A, “Aminoethylimidazole and cytoprotective and gastric antisecretory composition containing the same” (Jouveinal S.A., priority 1984, dated 1988).
Read-outs that look alike come from different tables or passages of the source.

Key:
synthesis of PGE2 = assay: increase of PGE2 synthesis in washed rabbit platelets; format: cell-based; set-up: key: +: the effect also causes an increase in the synthesis of PGE2; settings: in vitro
Experimental: (§1) The test performed was carried out in vitro on washed rabbit platelets. It was based on the publications of NEEDLEMAN (1977. Proc. Natl. Acad. Sci. 74, 1716) and SALMON (1982, Cardiovascular Pharmacol. of the Prostaglandins--Raven Press N.Y. pp. 7 to 22). It makes it possible both to determine the reduction of the synthesis of TXB2 and also the possible increase of the synthesis of PGE2. Thus, it is possible to determine the activity of the products on the PG:TX ratio.
(§2) The results given in the following tables are expressed in CEx%, i.e. in micromolar concentrations per liter permitting an inhibition by x% of the synthesis of TXB2. In the adjacent column, the symbol + means that the effect also causes an increase in the synthesis of PGE2.

thromboxane synthetase [1] = molecular target: T1, thromboxane synthetase (Oryctolagus cuniculus, UniProt G1TAZ9); assay: inhibition of TXB2 synthesis (thromboxane synthetase) in washed rabbit platelets; format: cell-based; settings: for activity relative to 1-benzyl imidazole: reference 1-benzyl imidazole
T1 construct: carried out in vitro on washed rabbit platelets; endogenous in cells; host or cells: washed rabbit platelets
T1 sequence (G1TAZ9 1-530): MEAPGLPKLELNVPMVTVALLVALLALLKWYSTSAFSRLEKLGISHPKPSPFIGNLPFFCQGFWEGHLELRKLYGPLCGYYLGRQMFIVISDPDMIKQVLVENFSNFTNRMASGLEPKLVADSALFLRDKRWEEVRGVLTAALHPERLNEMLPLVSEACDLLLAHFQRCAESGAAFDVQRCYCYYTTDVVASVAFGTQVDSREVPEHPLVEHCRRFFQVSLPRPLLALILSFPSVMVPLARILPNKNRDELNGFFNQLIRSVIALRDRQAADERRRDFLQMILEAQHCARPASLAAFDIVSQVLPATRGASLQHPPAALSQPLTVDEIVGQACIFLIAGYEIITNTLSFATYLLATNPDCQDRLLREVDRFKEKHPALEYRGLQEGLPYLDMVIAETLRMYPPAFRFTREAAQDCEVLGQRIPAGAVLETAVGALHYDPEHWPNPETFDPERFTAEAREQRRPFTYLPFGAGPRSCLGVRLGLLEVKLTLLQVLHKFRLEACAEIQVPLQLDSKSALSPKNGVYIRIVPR
Experimental: as §1, §2

gastric mucosa = assay: cytoprotection test, gastric ulceration caused by absolute ethanol; format: in vivo, Sprague Dawley rats; settings: rat; for ED50 values relative to the two routes compared: oral versus parenteral (s.c.) route
Experimental: The cytoprotective activity was investigated in connection with the stressing of the gastric mucosa caused by ethanol.
The cytoprotection test was carried out in accordance with the procedure described by A. ROBERT et al (Gastroenterology 1979-77-433). Batches of six male Sprague Dawley rats, which had not received solid food for 24 hours before the test, received by the oral route 1 ml/rat of absolute ethanol, after receiving the product to be tested 30 minutes beforehand by the subcutaneous […] 1 hour beforehand by the oral route. One hour after ingesting the ethanol, the rats were killed by stretching and their stomachs were carefully removed, opened along the greater curvature, washed under running water and spread out. The ulcerations were then marked and measured under a binocular lamp. An index representing the sum of the lengths of the ulcers is then determined for each rat and the mean value of these indexes for each batch is calculated and compared with that of the control batch using the Student "t" test. The 50% effective dose (ED50) is then graphically determined when possible. In other cases, the percentage inhibition obtained with the aid of the maximum tested dose is given. The results are given in table 5 for the products of examples 1 to 8 and in table 6 for the products of examples 9 to 12.

[2] = acute toxicity (LD50, mice); settings: mouse, in vivo, 14 days
Experimental: The acute toxicity of the products was investigated in male SWISS/IOPS mice weighing approximately 22 g. The 50% lethal dose (LD50) was calculated by the method of L. J. REED and H. MUNCH (Am. J. Hyg. 1939-37-493) 14 days following the […] treatment of batches of 10 animals per dose and on the basis of 4 to 6 doses per product. The results of this investigation are given in table 3 for the products of examples 1 to 8 and in table 4 for the products of examples 9 to 12.

thromboxane synthetase [3] = settings: human platelets; literature; cited from earlier work
[4] = washed rabbit platelets, in vitro, 50% inhibition of TXB2 synthesis, read-out: Inh. TX B2 CE50%
[5] = sc, s.c. route, 30 minutes before absolute ethanol, read-out: ED50% s.c. route
[6] = oral route, read-out: LD50 % oral route
[7] = ip, read-out: LD50 % i.p. route
[8] = oral route, 1 hour before absolute ethanol, read-out: ED50% oral route

SMILES | Incr. PGE2 (synthesis of PGE2) | IC50 (thromboxane synthetase [1]; [4]) | ED50 (gastric mucosa; [5]) | LD50 at 336 h [2, 6] | LD50 at 336 h [2, 7] | further results
CCC(Cn1ccnc1)(c1ccccc1)N(C)C (single isomer, unassigned) [EX. 12, 1-[(2-phenyl-2-ethyl)-2-N,N-dimethylaminoethyl]-imidazole] | + | 11.3 µM | 5.3 mg/kg | 780 mg/kg |  | 
c1ccc(Cn2ccnc2)cc1 [1-Benzyl-Imidazole, 1-benzyl imidazole, reference compound] |  |  |  |  |  | thromboxane synthetase inhibition in words (thromboxane synthetase [3]): thromboxane synthetase inhibitor; IC50 (thromboxane synthetase [1]): 13.4 µM
COc1ccc(CC(C)(Cn2ccnc2)N(C)C)cc1 (stereo not drawn) [EX. 9, 1-[(2-p-methoxybenzyl-2-methyl)-2-N,N-dimethylaminoethyl]imidazole dihemimaleate] | + | 4.5 µM |  | 758 mg/kg | 231 mg/kg | activity relative to 1-benzyl imidazole (thromboxane synthetase [1]; washed rabbit platelets): equal to clearly superior activity
CN(C)C(C)(COc1ccc(Cl)cc1)Cn1ccnc1 (stereo not drawn) [EX. 10] | + | 13.2 µM | 10 mg/kg | 86 mg/kg | 32 mg/kg | 
CN(C)C(C)(Cn1ccnc1)c1ccc(-c2ccccc2)cc1 (stereo not drawn) [EX. 11] | + | 11.2 µM |  | 183 mg/kg |  | ED40 (gastric mucosa; sc, s.c. route, 30 minutes before absolute ethanol): 10 mg/kg
CCC(Cn1ccnc1)(c1ccccc1)N(C)C (stereo not drawn) [Ex. 1A, 1-[(2-phenyl-2-ethyl)-2-N,N-dimethylaminoethyl]-imidazole] | + | 3.7 µM | 11 mg/kg | 559 mg/kg | 326 mg/kg | activity relative to 1-benzyl imidazole (thromboxane synthetase [1]; washed rabbit platelets): equal to clearly superior activity; ED50 (gastric mucosa; [8]): 13 mg/kg; ED50 values relative to the two routes compared (gastric mucosa): roughly equivalent
CCC(CN(C)C)(c1ccccc1)n1ccnc1 (stereo not drawn) [Ex. 1B, 1-[(1-phenyl-1-ethyl)-2-N,N-dimethylaminoethyl]-imidazole] | + | 17.4 µM | 8.1 mg/kg | 285 mg/kg | 145 mg/kg | ED50 (gastric mucosa; [8]): 7.1 mg/kg; ED50 values relative to the two routes compared (gastric mucosa): roughly equivalent
CCC(Cn1ccnc1C)(c1ccccc1)N(C)C (stereo not drawn) [Ex. 2A, 1-[(2-phenyl-2-ethyl)-2-N,N-dimethylaminoethyl]-2-methylimidazole] |  |  | 12.6 mg/kg | 500 mg/kg | 157 mg/kg | IC10 (thromboxane synthetase [1]; washed rabbit platelets, in vitro, 10% inhibition of TXB2 synthesis, read-out: Inh. TX B2 CE10%): 50 µM; ED50 (gastric mucosa; [8]): 12 mg/kg; ED50 values relative to the two routes compared (gastric mucosa): roughly equivalent
CCC(CN(C)C)(c1ccccc1)n1ccnc1C (stereo not drawn) [Ex. 2B, 1-[(1-phenyl-1-ethyl)-2-N,N-dimethylaminoethyl]-2-methylimidazole] |  |  | 10 mg/kg | 393 mg/kg | 137 mg/kg | IC18 (thromboxane synthetase [1]; washed rabbit platelets, in vitro, 18% inhibition of TXB2 synthesis, read-out: Inh. TX B2 CE18%): 50 µM; ED50 (gastric mucosa; [8]): 12 mg/kg; ED50 values relative to the two routes compared (gastric mucosa): roughly equivalent
CCC(Cn1cnc(-c2ccccc2)c1-c1ccccc1)(c1ccccc1)N(C)C (stereo not drawn) [Ex. 3A] |  |  |  | > 1150 mg/kg |  | 
CCC(CN(C)C)(c1ccccc1)n1cnc(-c2ccccc2)c1-c1ccccc1 (stereo not drawn) [Ex. 3B] |  |  |  | > 1150 mg/kg |  | ED50 (gastric mucosa; [8]): 26 mg/kg
CCc1nc(C)cn1C(CC)(CN(C)C)c1ccccc1 (stereo not drawn) [Ex. 4B] |  |  | 4 mg/kg | 298 mg/kg | 47 mg/kg | 
CCC(Cn1ccnc1-c1ccccc1)(c1ccccc1)N(C)C (stereo not drawn) [Ex. 5A] |  | 50 µM |  |  |  | 
CCC(CN(C)C)(c1ccccc1)n1ccnc1-c1ccccc1 (stereo not drawn) [Ex. 5B] |  |  |  | 840 mg/kg |  | IC20 (thromboxane synthetase [1]; washed rabbit platelets, in vitro, 20% inhibition of TXB2 synthesis, read-out: Inh. TX B2 CE20%): 50 µM
CN(C)C(C)(C)Cn1ccnc1 [Ex. 6A] |  |  |  | > 1180 mg/kg |  | IC41 (thromboxane synthetase [1]; washed rabbit platelets, in vitro, 41% inhibition of TXB2 synthesis, read-out: Inh. TX B2 CE41%): 50 µM
CN(C)CC(C)(C)n1ccnc1 [Ex. 6B] |  | 50 µM |  | > 1180 mg/kg |  | 
CCC(Cc1ccccc1)(Cn1ccnc1)N(C)C (stereo not drawn) [Ex. 7A] | + | < 1 µM | 26.6 mg/kg | 480 mg/kg |  | 
CCC(Cc1ccccc1)(CN(C)C)n1ccnc1 (stereo not drawn) [Ex. 7B] |  |  | 8.5 mg/kg | 384 mg/kg |  | IC35 (thromboxane synthetase [1]; washed rabbit platelets, in vitro, 35% inhibition of TXB2 synthesis, read-out: Inh. TX B2 CE35%): 100 µM
CCCCCC(Cn1ccnc1)(c1ccccc1)N(C)C (stereo not drawn) [Ex. 8A] | + | 0.56 µM | 25 mg/kg | 287 mg/kg |  | activity relative to 1-benzyl imidazole (thromboxane synthetase [1]; washed rabbit platelets): equal to clearly superior activity
CCCCCC(CN(C)C)(c1ccccc1)n1ccnc1 (stereo not drawn) [Ex. 8B] | + | 2.15 µM | 9 mg/kg | 562 mg/kg | 346 mg/kg | activity relative to 1-benzyl imidazole (thromboxane synthetase [1]; washed rabbit platelets): equal to clearly superior activity
